Laboratory results from the NIST ThermoML archive (doi:10.1016/j.fluid.2016.03.009).
± gives the expanded uncertainty stated by the source.

Settings: 101.33 kPa, Liquid, Vibrating tube method

SMILES | mass density (283.15 K) [kg/m3] | mass density (288.15 K) [kg/m3] | mass density (293.15 K) [kg/m3] | mass density (298.15 K) [kg/m3] | mass density (303.15 K) [kg/m3] | mass density (308.15 K) [kg/m3] | mass density (313.15 K) [kg/m3] | mass density (318.15 K) [kg/m3] | mass density (323.15 K) [kg/m3] | mass density (328.15 K) [kg/m3] | mass density (333.15 K) [kg/m3] | mass density (338.15 K) [kg/m3] | mass density (343.15 K) [kg/m3] | mass density (348.15 K) [kg/m3] | mass density (353.15 K) [kg/m3] | mass density (278.15 K) [kg/m3]
C[n+]1ccn(CCCCS(=O)(=O)O)c1.O=S(=O)([N-]S(=O)(=O)C(F)(F)F)C(F)(F)F | 1597.92 ± 80 | 1592.96 ± 80 | 1587.85 ± 80 | 1582.58 ± 80 | 1577.87 ± 80 | 1573.18 ± 80 | 1568.52 ± 80 | 1563.87 ± 80 | 1559.23 ± 80 | 1554.6 ± 80 | 1550.01 ± 80 | 1545.56 ± 80 | 1541.12 ± 80 | 1536.68 ± 80 | 1532.23 ± 80 | –
CCC[n+]1cccc(C)c1.O=S(=O)([N-]S(=O)(=O)C(F)(F)F)C(F)(F)F | 1462.43 ± 80 | 1457.62 ± 80 | 1452.81 ± 80 | 1448.03 ± 80 | 1443.28 ± 80 | 1438.54 ± 80 | 1433.81 ± 80 | 1429.11 ± 80 | 1424.43 ± 80 | 1419.79 ± 80 | 1415.16 ± 80 | 1409.8 ± 80 | 1405.96 ± 80 | 1401.4 ± 80 | 1396.85 ± 80 | 1467.23 ± 80
CC(O)C(=O)[O-].CCn1cc[n+](C)c1 [1-ethyl-3-methylimidazolium lactate] | 1153.47 ± 7.2 | 1149.77 ± 7.2 | 1146.11 ± 7.1 | 1142.46 ± 7.1 | 1138.89 ± 7 | 1135.43 ± 7 | 1131.95 ± 7 | 1128.51 ± 6.9 | 1125.07 ± 6.9 | 1121.67 ± 6.8 | 1118.51 ± 6.8 | 1117.98 ± 6.8 | 1111.66 ± 6.7 | 1108.39 ± 6.7 | 1105.14 ± 6.6 | 1157.45 ± 7.3
C[n+]1ccn(CCCCS(=O)(=O)O)c1.O=S(=O)([O-])O [1-methyl-3-(4-sulfobutyl)-imidazolium hydrogensulfate] | 1450.3 ± 80 | 1447.02 ± 80 | – | 1437.08 ± 80 | 1433.68 ± 80 | – | 1426.76 ± 80 | – | 1420.51 ± 80 | – | 1414.28 ± 80 | – | 1408.07 ± 80 | – | 1401.8 ± 80 | –
